Test results published in ChEMBL document CHEMBL4400519, “Indazolylketones as new multitarget cannabinoid drugs” (Eur J Med Chem, 2019).
The source made the active and inactive calls. The rule behind the calls is not given here.

What was measured:
[1] = target: T1, Cannabinoid receptor (Mus musculus) (UniProt P47746+P47936); test: Agonist activity at cannabinoid receptor in ICR mouse vas deferens assessed as inhibition of electrically induced contractions at 10^-7 M after 10 mins relative to control; format: protein assay
T1 sequence (P47746 whole entry, looked up): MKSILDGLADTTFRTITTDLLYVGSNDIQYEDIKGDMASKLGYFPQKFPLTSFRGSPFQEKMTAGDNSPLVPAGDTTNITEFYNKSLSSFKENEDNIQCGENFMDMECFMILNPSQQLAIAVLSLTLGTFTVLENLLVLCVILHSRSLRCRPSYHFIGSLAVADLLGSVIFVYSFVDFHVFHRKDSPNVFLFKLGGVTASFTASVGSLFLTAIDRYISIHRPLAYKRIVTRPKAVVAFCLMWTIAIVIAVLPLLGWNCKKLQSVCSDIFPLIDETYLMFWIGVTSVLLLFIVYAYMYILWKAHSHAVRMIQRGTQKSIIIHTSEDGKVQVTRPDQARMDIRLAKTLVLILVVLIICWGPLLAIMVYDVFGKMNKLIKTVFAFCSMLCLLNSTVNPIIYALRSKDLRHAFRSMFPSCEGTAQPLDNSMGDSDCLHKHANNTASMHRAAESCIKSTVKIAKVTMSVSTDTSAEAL
T1 sequence (P47936 whole entry, looked up): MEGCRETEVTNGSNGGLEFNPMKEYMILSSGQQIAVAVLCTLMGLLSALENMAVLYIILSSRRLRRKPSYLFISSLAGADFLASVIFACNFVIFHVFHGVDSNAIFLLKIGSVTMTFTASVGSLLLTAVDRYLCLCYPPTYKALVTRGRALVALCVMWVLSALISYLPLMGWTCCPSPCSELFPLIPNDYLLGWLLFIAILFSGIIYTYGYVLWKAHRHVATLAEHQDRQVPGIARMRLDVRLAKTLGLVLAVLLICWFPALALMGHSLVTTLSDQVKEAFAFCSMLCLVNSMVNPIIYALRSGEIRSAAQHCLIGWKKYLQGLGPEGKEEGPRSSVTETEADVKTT

[2] = target: T1, Cannabinoid receptor (Mus musculus); test: Agonist activity at cannabinoid receptor in ICR mouse vas deferens assessed as inhibition of electrically induced contractions at 3 x 10^-7 M after 10 mins relative to control; format: protein assay
[3] = target: T1, Cannabinoid receptor (Mus musculus); test: Agonist activity at cannabinoid receptor in ICR mouse vas deferens assessed as inhibition of electrically induced contractions at 9 x 10^-7 M after 10 mins relative to control; format: protein assay
[4] = target: T1, Cannabinoid receptor (Mus musculus); test: Agonist activity at cannabinoid receptor in ICR mouse vas deferens assessed as inhibition of electrically induced contractions at 2.7 x 10^-6 M after 10 mins relative to control; format: protein assay
[5] = target: T1, Cannabinoid receptor (Mus musculus); test: Agonist activity at cannabinoid receptor in ICR mouse vas deferens assessed as inhibition of electrically induced contractions at 8.1 x 10^-6 M after 10 mins relative to control; format: protein assay
[6] = target: T1, Cannabinoid receptor (Mus musculus); test: Agonist activity at cannabinoid receptor in ICR mouse vas deferens assessed as inhibition of electrically induced contractions at 1.82 x 10^-5 M after 10 mins relative to control; format: protein assay
[7] = target: T1, Cannabinoid receptor (Mus musculus); test: Agonist activity at cannabinoid receptor in ICR mouse vas deferens assessed as inhibition of electrically induced contractions at 10^-7 M after 10 mins in presence of CB1 antagonist AM251 relative to control; format: protein assay
[8] = target: T1, Cannabinoid receptor (Mus musculus); test: Agonist activity at cannabinoid receptor in ICR mouse vas deferens assessed as inhibition of electrically induced contractions at 3 x 10^-7 M after 10 mins in presence of CB1 antagonist AM251 relative to control; format: protein assay
[9] = target: T1, Cannabinoid receptor (Mus musculus); test: Agonist activity at cannabinoid receptor in ICR mouse vas deferens assessed as inhibition of electrically induced contractions at 9 x 10^-7 M after 10 mins in presence of CB1 antagonist AM251 relative to control; format: protein assay
[10] = target: T1, Cannabinoid receptor (Mus musculus); test: Agonist activity at cannabinoid receptor in ICR mouse vas deferens assessed as inhibition of electrically induced contractions at 2.7 x 10^-6 M after 10 mins in presence of CB1 antagonist AM251 relative to control; format: protein assay
[11] = target: T1, Cannabinoid receptor (Mus musculus); test: Agonist activity at cannabinoid receptor in ICR mouse vas deferens assessed as inhibition of electrically induced contractions at 8.1 x 10^-6 M after 10 mins in presence of CB1 antagonist AM251 relative to control; format: protein assay
[12] = target: T1, Cannabinoid receptor (Mus musculus); test: Agonist activity at cannabinoid receptor in ICR mouse vas deferens assessed as inhibition of electrically induced contractions at 1.82 x 10^-5 M after 10 mins in presence of CB1 antagonist AM251 relative to control; format: protein assay
[13] = target: T1, Cannabinoid receptor (Mus musculus); test: Agonist activity at cannabinoid receptor in ICR mouse vas deferens assessed as inhibition of electrically induced contractions at 10^-7 M after 10 mins in presence of CB2 antagonist AM630 relative to control; format: protein assay
[14] = target: T1, Cannabinoid receptor (Mus musculus); test: Agonist activity at cannabinoid receptor in ICR mouse vas deferens assessed as inhibition of electrically induced contractions at 3 x 10^-7 M after 10 mins in presence of CB2 antagonist AM630 relative to control; format: protein assay
[15] = target: T1, Cannabinoid receptor (Mus musculus); test: Agonist activity at cannabinoid receptor in ICR mouse vas deferens assessed as inhibition of electrically induced contractions at 9 x 10^-7 M after 10 mins in presence of CB2 antagonist AM630 relative to control; format: protein assay
[16] = target: T1, Cannabinoid receptor (Mus musculus); test: Agonist activity at cannabinoid receptor in ICR mouse vas deferens assessed as inhibition of electrically induced contractions at 2.7 x 10^-6 M after 10 mins in presence of CB2 antagonist AM630 relative to control; format: protein assay
[17] = target: T1, Cannabinoid receptor (Mus musculus); test: Agonist activity at cannabinoid receptor in ICR mouse vas deferens assessed as inhibition of electrically induced contractions at 8.1 x 10^-6 M after 10 mins in presence of CB2 antagonist AM630 relative to control; format: protein assay
[18] = target: T1, Cannabinoid receptor (Mus musculus); test: Agonist activity at cannabinoid receptor in ICR mouse vas deferens assessed as inhibition of electrically induced contractions at 1.82 x 10^-5 M after 10 mins in presence of CB2 antagonist AM630 relative to control; format: protein assay
[19] = target: T2, Acetylcholinesterase (Homo sapiens, UniProt P22303); test: Inhibition of human erythrocyte AChE using acetylthiocholine as substrate by Ellman's assay
T2 sequence (P22303 whole entry): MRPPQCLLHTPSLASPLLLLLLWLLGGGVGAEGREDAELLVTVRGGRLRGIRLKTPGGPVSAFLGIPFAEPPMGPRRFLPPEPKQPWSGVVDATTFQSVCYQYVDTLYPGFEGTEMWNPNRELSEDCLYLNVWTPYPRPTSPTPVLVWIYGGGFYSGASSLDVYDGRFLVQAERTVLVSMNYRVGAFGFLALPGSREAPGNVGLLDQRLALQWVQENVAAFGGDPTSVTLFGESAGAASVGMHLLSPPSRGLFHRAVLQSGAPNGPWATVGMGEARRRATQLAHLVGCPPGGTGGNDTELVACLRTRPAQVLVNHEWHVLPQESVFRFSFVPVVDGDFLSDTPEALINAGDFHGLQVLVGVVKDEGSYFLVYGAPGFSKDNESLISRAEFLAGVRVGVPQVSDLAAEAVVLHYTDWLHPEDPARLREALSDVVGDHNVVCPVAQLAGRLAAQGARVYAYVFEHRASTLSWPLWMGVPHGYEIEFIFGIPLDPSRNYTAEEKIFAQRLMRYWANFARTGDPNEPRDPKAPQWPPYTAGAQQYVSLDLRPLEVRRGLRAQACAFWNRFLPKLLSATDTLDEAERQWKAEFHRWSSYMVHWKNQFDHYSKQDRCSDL

[20] = target: Cholinesterase (Homo sapiens, UniProt P06276); test: Inhibition of human serum BChE using butyrylthiocholine as substrate by Ellman's assay
Sequence of Cholinesterase (P06276 whole entry): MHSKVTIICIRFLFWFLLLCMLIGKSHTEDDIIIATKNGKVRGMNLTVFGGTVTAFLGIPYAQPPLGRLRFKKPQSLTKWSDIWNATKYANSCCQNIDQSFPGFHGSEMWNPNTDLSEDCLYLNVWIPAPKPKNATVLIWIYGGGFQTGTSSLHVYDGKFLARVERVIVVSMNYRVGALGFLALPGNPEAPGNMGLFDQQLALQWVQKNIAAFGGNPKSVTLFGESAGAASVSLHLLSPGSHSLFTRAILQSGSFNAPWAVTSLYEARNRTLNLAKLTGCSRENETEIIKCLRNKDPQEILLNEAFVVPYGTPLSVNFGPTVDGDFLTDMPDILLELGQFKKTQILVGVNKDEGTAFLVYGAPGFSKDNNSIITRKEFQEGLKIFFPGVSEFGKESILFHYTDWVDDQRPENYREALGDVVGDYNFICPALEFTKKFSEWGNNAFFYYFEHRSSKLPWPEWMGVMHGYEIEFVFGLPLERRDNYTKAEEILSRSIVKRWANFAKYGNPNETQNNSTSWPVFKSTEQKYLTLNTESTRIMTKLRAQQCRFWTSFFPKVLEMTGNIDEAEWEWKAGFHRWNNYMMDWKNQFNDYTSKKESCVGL

[21] = target: Beta-secretase 1 (Homo sapiens) (UniProt P56817); test: Inhibition of human BACE1 at 10 uM incubated for 60 mins using rhodamine-EVNLDAEFK-quencher substrate by FRET assay
Sequence of Beta-secretase 1 (Homo sapiens) (P56817 whole entry): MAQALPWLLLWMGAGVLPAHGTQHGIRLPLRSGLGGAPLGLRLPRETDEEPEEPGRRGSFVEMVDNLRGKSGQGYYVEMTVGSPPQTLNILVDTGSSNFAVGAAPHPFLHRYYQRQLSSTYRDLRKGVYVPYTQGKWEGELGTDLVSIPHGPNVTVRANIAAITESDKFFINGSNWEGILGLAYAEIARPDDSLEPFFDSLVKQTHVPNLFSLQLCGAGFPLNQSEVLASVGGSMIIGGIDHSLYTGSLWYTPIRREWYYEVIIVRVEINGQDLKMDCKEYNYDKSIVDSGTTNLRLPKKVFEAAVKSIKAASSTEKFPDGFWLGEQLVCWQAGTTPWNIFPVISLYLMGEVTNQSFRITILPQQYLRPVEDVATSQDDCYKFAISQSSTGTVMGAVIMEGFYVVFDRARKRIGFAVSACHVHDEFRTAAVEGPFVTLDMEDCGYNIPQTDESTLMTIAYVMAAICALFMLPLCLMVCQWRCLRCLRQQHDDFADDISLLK

[22] = Antioxidant activity assessed as trolox equivalent of APPH-induced radical scavenging activity by ORAC-FL assay; format: functional
[23] = target: T2, Acetylcholinesterase; test: Inhibition of human erythrocyte AChE at 10 uM using acetylthiocholine as substrate by Ellman's assay

SMILES | inhibition [1] [%] | inhibition [2] [%] | inhibition [3] [%] | inhibition [4] [%] | inhibition [5] [%] | inhibition [6] [%] | inhibition [7] [%] | inhibition [8] [%] | inhibition [9] [%] | inhibition [10] [%] | inhibition [11] [%] | inhibition [12] [%] | inhibition [13] [%] | inhibition [14] [%] | inhibition [15] [%] | inhibition [16] [%] | inhibition [17] [%] | inhibition [18] [%] | IC50 [19] [µM] | IC50 [20] [nM] | also measured
COc1ccc(CC(=O)n2nc(OCCN3CCCC3)c3ccccc32)cc1 | 2.4 | 7.9 | 13.7 | 23.4 | 50.3 | 76.9 | -1.7 | -0.9 | 2.4 | 12.2 | 44.3 | 78.6 | 0.1 | 3.3 | 6.4 | 14 | 47.9 | 78.6 | > 10 | 9000 | inhibition [21]: 17%; Activity [22]: inactive
O=C(c1cccc2ccccc12)n1nc(OCCN2CCCCC2)c2ccccc21 | -0.7 | 1.4 | 8.6 | 28.6 | 69.2 | 93.7 | -7.7 | – | – | – | 27.8 | 73.3 | -8.6 | -7.9 | -2.6 | 15.7 | 73.6 | 92 | > 10 | 0.26 | inhibition [21]: 11%; Activity [22]: inactive; inhibition [23]: 37%
O=C(c1ccccc1OCc1ccccc1)n1nc(OCCN2CCCC2)c2ccccc21 | 1.2 | 3.7 | 7.7 | 10.4 | 32.5 | 68.1 | -1.9 | -0.5 | 1.3 | 5.9 | 38.8 | 71.2 | -4 | -1.6 | 2.7 | 10.3 | 47.2 | 76.7 | > 10 | 390 | inhibition [21]: 32%; Activity [22]: inactive
O=C(c1cccc(Cl)c1Cl)n1nc(OCCN2CCCCC2)c2ccccc21 | 1.3 | 3.8 | 15.6 | 29.4 | 80.5 | 87.2 | -1.8 | -0.9 | 1 | 3.1 | 23.5 | 43.4 | -1.2 | -1.3 | 2.4 | 8.6 | 60.2 | 78.2 | 10.5 | 600 | inhibition [21]: 18.1%; Activity [22]: inactive
O=C(c1ccccc1Cl)n1nc(OCCCN2CCCCC2)c2ccccc21 | -2.2 | 2.8 | 8.9 | 13 | 42.8 | 87.3 | -1.7 | -0.4 | 4.7 | 10.7 | 51.5 | 88.2 | -7.9 | -7 | 6.2 | 9.3 | 34.3 | 79.8 | 9.7 | 70 | inhibition [21]: 12%; Activity [22]: 0.28 equiv
Cc1c(C(=O)NN2CCCCC2)nn(-c2ccc(Cl)cc2Cl)c1-c1ccc(I)cc1 | – | – | – | – | – | – | -7.3 | -2 | 12.1 | 38.4 | 72.7 | 84.6 | – | – | – | – | – | – | – | – | –
O=C(c1cccc2ccccc12)n1nc(OCCCN2CCCC2)c2ccccc21 | -2 | 0.5 | 3.2 | 11.3 | 56.1 | 87.4 | -6.7 | -8.6 | -7.2 | 5.7 | 57.9 | 88.4 | -2.7 | -0.9 | 4 | 15.2 | 68.7 | 89.5 | > 10 | 0.15 | inhibition [21]: 20%; Activity [22]: inactive; inhibition [23]: 35%
O=C(c1cccc(F)c1F)n1nc(OCCN2CCCC2)c2ccccc21 | 0.8 | 3.6 | 11 | 24.1 | 37.5 | 49.4 | -1.6 | -1.2 | 4.9 | 12.5 | 23.3 | 29.9 | -3.8 | -2.8 | 3.7 | 13.2 | 21.2 | 30.1 | 11 | 11000 | inhibition [21]: 14%; Activity [22]: inactive
Cc1c(C(=O)c2cccc3ccccc23)c2cccc3c2n1[C@H](CN1CCOCC1)CO3 | 17.8 | 32.7 | 54.5 | 61.8 | 71.4 | 81.3 | -3.9 | -2.7 | 2 | 11.5 | 31.9 | 52 | -1.1 | 2 | 22 | 33.2 | 54.8 | 68.9 | – | – | –
O=C(c1cccc2ccccc12)n1nc(OCCCN2CCCCC2)c2ccccc21 | 1 | 3 | 7.9 | 16 | 31.5 | 55.9 | -6.4 | -5 | -3.7 | -2.4 | 2.7 | 18.4 | -8.2 | -5.4 | 0.1 | 14.2 | 41 | 56.7 | > 10 | 0.07 | inhibition [21]: 42%; Activity [22]: inactive; inhibition [23]: 43%
COc1cc(C(=O)n2nc(OCCN3CCCC3)c3ccccc32)cc(OC)c1OC | 3.2 | 7 | 14.6 | 26.9 | 49.7 | 78 | -0.7 | 6 | 5.6 | 15 | 42.4 | 74 | -1 | 0.8 | 4.1 | 10.9 | 40 | 69.5 | 11.6 | > 10000 | inhibition [21]: 6%; Activity [22]: inactive
O=C(c1c(F)ccc(F)c1F)n1nc(OCCN2CCCCC2)c2ccccc21 | 4.8 | 9.2 | 20.8 | 40.6 | 60.9 | 73.2 | -5.3 | -3.5 | 6.7 | 10.4 | 23.6 | 37.1 | -3.3 | -1.7 | 4.4 | 12.8 | 32.3 | 49.1 | 9.4 | 9400 | inhibition [21]: 14.3%; Activity [22]: inactive
